Data reported in patent publication US9845330B2, “6-nitro-2,3-dihydroimidazo[2,1-b]oxazoles and a process for the preparation thereof” (priority 2013, dated 2017).
Converted amounts (≈) assume the structure as drawn.

Key:
[1] = test system: M. tuberculosis XDR (resistant to isoniazid, rifampicin, amikacin and moxifloxacin); assay: microbe, parasite or virus in culture; assay type: cell-based; details: Mycobacterium tuberculosis, 504 h, read-out: MIC M. tb XDR
[2] = test system: M. tuberculosis MDR (resistant to isoniazid and rifampicin); assay: microbe, parasite or virus in culture; assay type: cell-based; details: Mycobacterium tuberculosis, 504 h, read-out: MIC M. tb MDR

## C[C@]1(COc2ccc(S(=O)(=O)N3CCN(c4ccc(F)cc4)CC3)cc2)Cn2cc([N+](=O)[O-])nc2O1 [IIC2, (R)-2-{4-[4-(4-fluorophenyl)piperazin-1-yl]sulfonylphenoxymethyl}-2,3-dihydro-2-methyl-6-nitroimidazo[2,1-b]oxazole]
[1]
  MIC: 2 µg/mL (≈ 3.86 µM)
[2]
  MIC: 2 µg/mL (≈ 3.86 µM)

## C[C@]1(COc2ccc(S(=O)(=O)N3CCN(c4cccc(Cl)c4)CC3)cc2)Cn2cc([N+](=O)[O-])nc2O1 [IIC3, (R)-2-{4-[4-(3-chlorophenyl)piperazin-1-yl]sulfonylphenoxymethyl}-2,3-dihydro-2-methyl-6-nitroimidazo[2,1-b]oxazole]
[1]
  MIC: 8 µg/mL (≈ 15 µM)
[2]
  MIC: 8 µg/mL (≈ 15 µM)

## C[C@]1(COc2ccc(S(=O)(=O)N3CCN(c4ccc(OC(F)(F)F)cc4)CC3)cc2)Cn2cc([N+](=O)[O-])nc2O1 [IIC4, (R)-2-{4-[4-(4-trifluoromethoxyphenyl)piperazin-1-yl]sulfonylphenoxymethyl}-2,3-dihydro-2-methyl-6-nitroimidazo[2,1-b]oxazole]
[1]
  MIC: 2 µg/mL (≈ 3.43 µM)
[2]
  MIC: 2 µg/mL (≈ 3.43 µM)

## CCOC(=O)N1CCN(S(=O)(=O)c2ccc(OC[C@@]3(C)Cn4cc([N+](=O)[O-])nc4O3)cc2)CC1 [IIC5, (R)-ethyl-{4-[4-(2-methyl-6-nitro-2,3-dihydroimidazo[2,1-b]oxazol-2yl)methoxyphenyl]sulfonyl}piperazine-1-carboxylate]
[1]
  MIC: 2 µg/mL (≈ 4.04 µM)
[2]
  MIC: 2 µg/mL (≈ 4.04 µM)

## C[C@]1(COc2ccc(S(=O)(=O)N3CCN(C(=O)c4ccccc4)CC3)cc2)Cn2cc([N+](=O)[O-])nc2O1 [IIC6, (R)-{4-[4-(2-methyl-6-nitro-2,3-dihydroimidazo[2,1-b]oxazol-2yl)methoxyphenyl]sulfonyl}piperazine-1-yl(phenyl)methanone]
[1]
  MIC: 2 µg/mL (≈ 3.79 µM)
[2]
  MIC: 2 µg/mL (≈ 3.79 µM)

## C[C@]1(COc2ccc(S(=O)(=O)N3CCCCC3)cc2)Cn2cc([N+](=O)[O-])nc2O1 [IIC7, (R)-2-{4-(piperidin-1-ylsulfonyl)phenoxymethyl}-2,3-dihydro-2-methyl-6-nitroimidazo[2,1-b]oxazole]
[1]
  MIC: 1 µg/mL (≈ 2.37 µM)
[2]
  MIC: 1 µg/mL (≈ 2.37 µM)

## C[C@]1(COc2ccc(S(=O)(=O)N3CCC(c4ccccc4)CC3)cc2)Cn2cc([N+](=O)[O-])nc2O1 [IIC8, (R)-2-{4-[(4-phenylpiperidin-1-yl)sulfonyl]phenoxymethyl}-2,3-dihydro-2-methyl-6-nitroimidazo[2,1-b]oxazole]
[1]
  MIC: 0.5 µg/mL (≈ 1 µM)
[2]
  MIC: 0.5 µg/mL (≈ 1 µM)

## C[C@]1(COc2ccc(S(=O)(=O)N3CCCC3)cc2)Cn2cc([N+](=O)[O-])nc2O1 [IIC9, (R)-2-{4-(pyrrolidin-1-ylsulfonyl)phenoxymethyl}-2,3-dihydro-2-methyl-6-nitroimidazo[2,1-b]oxazole]
[1]
  MIC: 1 µg/mL (≈ 2.45 µM)
[2]
  MIC: 1 µg/mL (≈ 2.45 µM)

## C[C@]1(COc2ccc(S(=O)(=O)N3CCOCC3)cc2)Cn2cc([N+](=O)[O-])nc2O1 [IIC10, (R)-2-{4-(morpholinsulfonyl)phenoxymethyl}-2,3-dihydro-2-methyl-6-nitroimidazo[2,1-b]oxazole]
[1]
  MIC: 0.5 µg/mL (≈ 1.18 µM)
[2]
  MIC: 0.5 µg/mL (≈ 1.18 µM)
